From PubChem BioAssay (NCI) come the findings set out here.

What all share (assay): NCI-60 cell line screen, 48 h
The test system of assay [1] is SW-620 colon.
Assay [2] relates to M14 melanoma.
Assay [3] concerns COLO 205 colon.
Assay [4] deals with SK-OV-3 ovarian.
The test system of assay [5] is CAKI-1 renal.
Assay [6] has as its system NCI-H23 lung.
Assay [7] relates to EKVX NSCLC.
Assay [8] has as its system NCI-H522 lung.
In assay [9] the test system is A498 renal.
Assay [10] has as its system HCT-116 colon.
Assay [11] relates to K-562 leukemia.
The test system of assay [12] is SF-295 CNS.
Assay [13] deals with HOP-62 NSCLC.
Assay [14] concerns UO-31 renal.
Assay [15] deals with RXF 393 renal.
In assay [16] the test system is IGROV1 ovarian.
Assay [17] relates to CCRF-CEM leukemia.
Assay [18] concerns HS 578T breast.

Molecules are shown by their SMILES.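 Exposure lasted 48 hours, with cells grown in 96-well plates and compounds tested at five concentrations. TGI is the concentration that stops growth completely.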

For `CC[C@]1(Cc2ccc(OC)c(OC)c2)C2CC(C(=O)OC)ON2O[C@H](OCc2ccccc2)[C@@H]1OC(C)=O` (some centres undefined), the TGI in assay [1], in assay [2], in [3], in assay [4], in [5] and in [6] was over 100 µM throughout. For the same compound, the TGI in [7], in assay [8], in assay [9], in [10], in assay [11] and in assay [12] was over 100 µM each time. Besides, the TGI in assay [13], in assay [14], in assay [15], in [16] and in assay [17] was over 100 µM in each case.

For the compound `CNC(=O)N1CN(c2ccccc2)C2(CCN(Cc3ccccc3)CC2)C1=O`, the TGI in [1], in [2], in [3], in assay [4], in [5] and in [6] was over 100 µM throughout. The TGI in [7], in assay [8], in [10], in [11], in [12] and in assay [13] was over 100 µM in each case. The TGI in assay [14], in assay [15], in [16] and in assay [17] was over 100 µM each time.

In the case of `CC(C)=NOC(=O)OC[C@H]1O[C@@H](n2cnc3c(N)ncnc32)C(O)C1O` (some centres undefined), the TGI in assay [1], in [2], in [18], in [3], in assay [4] and in assay [6] was over 100 µM in each case. Besides, the TGI in assay [7], in assay [8], in assay [9], in assay [11], in [12] and in [13] was over 100 µM in each case. For the same compound, the TGI in [14], in assay [15], in assay [16] and in assay [17] was over 100 µM each time.

In the case of `O=C1c2cn[nH]c2N=C(Nc2ccccc2)C1N=Cc1ccc([N+](=O)[O-])cc1` (centres undefined), the TGI in assay [2], in [18], in assay [6], in assay [7], in [8] and in assay [10] was over 10 µM in each case. For the same compound, the TGI in [11], in assay [12], in [14] and in assay [17] was over 10 µM throughout.

For the compound `CN(/N=C/c1ccc(Cl)c(Cl)c1)C1=NCCCCN1`, the TGI was 38 µM in assay [1]; 29.9 µM in [2]; over 100 µM in assay [18]; 37.2 µM in [3]; over 100 µM in assay [4]; 82.7 µM in [5]. Further, the TGI was over 100 µM in assay [6]; over 100 µM in assay [7]; 33.7 µM in assay [8]; 49.2 µM in [9]; 79.4 µM in [10]; 69.3 µM in [11]. Further, the TGI was over 100 µM in assay [12], 35.4 µM in assay [13], over 100 µM in assay [16] and 83.5 µM in assay [17].

Regarding `O=C1CCCCCCCCCCC1CN1CCOCC1` (centres undefined), the TGI in assay [1], in [2], in assay [18], in [3], in assay [4] and in [6] was over 100 µM throughout. The TGI in assay [7], in assay [8], in assay [10], in assay [11], in assay [12] and in assay [13] was over 100 µM in each case. Besides, the TGI in assay [14], in [15], in assay [16] and in assay [17] was over 100 µM each time.

`CCOC(=O)C(NC(=O)c1cccc(Cl)c1)(Nc1ccc(S(=O)(=O)Nc2cc(C)nc(C)n2)cc1)C(F)(F)F` (centres undefined): the TGI in assay [1], in assay [2], in [18], in assay [3], in [4] and in assay [5] was over 100 µM each time. Besides, the TGI in assay [6], in assay [7], in assay [8], in [9], in [10] and in assay [12] was over 100 µM throughout. Also, the TGI in [13], in assay [14], in assay [16] and in assay [17] was over 100 µM in each case.

`C1=CCC[C@@H]2CN3CCCC/C=C\CCCC[C@H]4C[C@H](CN(CCCCCCCC1)C4)[C@H]2CC3`: the TGI was 16.4 µM in assay [1]; 18.7 µM in assay [2]; 20.2 µM in assay [18]; 16 µM in assay [3]; over 50 µM in [4]; 18.2 µM in assay [5]. The TGI was determined as 34.5 µM in assay [6]; 21.6 µM in assay [7]; 17.7 µM in assay [8]; 30.3 µM in assay [9]; 16.3 µM in [10]; 24 µM in assay [11]. Besides, the TGI came out at 16.4 µM in [12], 15.6 µM in [13], 18 µM in assay [16] and 34.9 µM in [17].

In the case of `Cc1cc(C#N)c(Nc2ccc(F)cc2[N+](=O)[O-])s1`, the TGI in [1], in assay [2], in [3], in [4], in assay [5] and in assay [6] was over 100 µM in each case. Moreover, the TGI in assay [7], in [8], in [9], in [10], in assay [11] and in [12] was over 100 µM each time. For the same compound, the TGI in assay [13], in assay [14], in [15] and in assay [17] was over 100 µM throughout.
